Columns and labels:
Assay in all cases: gel-based RP-ABPP of transfected HEK293T cells
Format in all cases: cell-based
Conditions in all cases: transfected HEK293T cells vs mock
[1] = target: T1, FTO (Homo sapiens, UniProt Q9C0B1)
T1 construct: Full-length genes encoding three probe 1- and one probe 2-targeted proteins were amplified from a cDNA library; expressed in transfected cells; host or cells: HEK293T
Protocol: (§1) Soluble proteomes from treated cells were diluted to 1 mg/mL. To each sample (50 μL), a freshly prepared “click” or CuAAC reagent mixture (6 μL) containing 0.1 mM tris(benzyltriazolylmethyl)amine (TBTA) (3 μL/sample, 1.7 mM in 4:1 DMSO:t-BuOH), 1 mM CuSO4 (1 μL/sample, 50 mM in H2O), 25 μM azide-rhodamine (1 μL/sample, 1.25 mM in DMSO), and freshly prepared 1 mM tris(2-carboxyethyl)phosphine (TCEP) (1 μL/sample, 50 mM in PBS or H2O) was added to conjugate the fluorophore to probe-labelled proteins. TBTA was purchased from TCI and azide-rhodamine was synthesized as previously described^64. Upon addition of the click mixture, each reaction was immediately mixed by vortexing and then allowed to react at ambient temperature for 1 hour before quenching the reactions with SDS loading buffer (4× stock, 17 μL). Proteins (˜25 μg total protein loaded per gel lane) were resolved by SDS-PAGE (10% acrylamide) and visualized by in-gel fluorescence scanning on a Hitachi FMBIO-II or BioRad ChemiDoc MP flatbed fluorescence scanner.
(§2) Full-length genes encoding three probe 1- and one probe 2-targeted proteins were amplified from a cDNA library derived from the same low-passage HEK293T cells used for proteomic profiling. The library was generated using Ribozol RNA extraction (Amresco) and iScript reverse transcription (Bio-rad) supermix reagents. The gene products were cloned into mammalian expression vectors containing N- or C-terminal FLAG affinity tags. The gene for S-adenosyl-L-methionine decarboxylase (AMD1 or AdoMetDC) was cloned into pFLAG-CMV-sport6 (N-terminal tag) at NotI and SalI restriction sites. AMD1, Secernin-3 (SCRN3) and fat mass- and obesity-associated Fe(II)- and 20G-dependent dioxygenase (FTO) were cloned into pRK5 (C-terminal tag) at SalI and NotI restriction sites. Kelch-like ECH-associated protein-1 (Keapl) (N-terminal tag), and empty plasmids of pRK5 were gifts. Full sequences of the genes were confirmed. The proteins expressed via transient transfection in HEK293T cells contain an additional 15 amino acids appended to their N-terminal methionine residue or C-terminus (MDYKD4KLKACGR (SEQ ID NO: 43) and A3G4DYKD4K (SEQ ID NO: 44), respectively). The DYKD4K (SEQ ID NO: 42) appendage in each contains the classic FLAG epitope that permits detection by western blotting or purification by affinity chromatography. Mutants of SCRN3 were generated using QuikChange site-directed mutagenesis with primers containing the desired mutations and their respective compliments. The gene for the deletion mutant of SCRN3 with the sequence MetlCys6-SCRN3 instead of Met1 Glu2Pro3Phe4Ser5Cys6-SCRN3 (SEQ ID NO: 45) was amplified from the wild-type C-terminal FLAG-tagged construct and cloned into the same vector.
(§3) HEK293T cells were grown to ˜40% confluence under standard growth conditions passaged in the appropriate media before adding the appropriate expression vector (control cells (‘mock’) received an equal amount of the appropriate empty vector) and polyethyleneimine (PEI) ‘MAX’ (MW 40,000, Polysciences Inc.) as a transfection reagent under standard transfection conditions (3:1 vector/PEI (w/w) ratio). Cells were incubated for ˜48 h before labelling in situ. Proteomes were processed for gel- and MS-based experiments as described above and in Example 2.
(§4) After scanning fluorescence, that same gel was transferred to nitrocellulose membrane in Towbin buffer, the membrane was blocked for ˜1 hour at ambient temperature with 5% nonfat dry milk (w/v) in Tris-buffered saline with Tween 20 (TBST) and incubated with primary antibodies in the same solution overnight at 4° C. The antibodies included anti-FLAG (1:2500, F1804, Sigma), anti-AdoMetDC (1:500, sc-160951, Santa Cruz Biotechnology) and anti-His6 (1:1000, ab18184, Abcam). The blots were washed (3×5 min, TBST), incubated with secondary antibodies (1:10,000, IRDye 800CW, LICOR) in milk for 1 hour at ambient temperature, washed again (3×5 min, TBST), and visualized on a LICOR Odyssey Scanner.

[2] = target: T2, SCRN3 (Homo sapiens, UniProt Q0VDG4)
T2 construct: Full-length genes encoding three probe 1- and one probe 2-targeted proteins were amplified from a cDNA library; expressed in transfected cells; host or cells: HEK293T
T2 sequence (Q0VDG4 6-424): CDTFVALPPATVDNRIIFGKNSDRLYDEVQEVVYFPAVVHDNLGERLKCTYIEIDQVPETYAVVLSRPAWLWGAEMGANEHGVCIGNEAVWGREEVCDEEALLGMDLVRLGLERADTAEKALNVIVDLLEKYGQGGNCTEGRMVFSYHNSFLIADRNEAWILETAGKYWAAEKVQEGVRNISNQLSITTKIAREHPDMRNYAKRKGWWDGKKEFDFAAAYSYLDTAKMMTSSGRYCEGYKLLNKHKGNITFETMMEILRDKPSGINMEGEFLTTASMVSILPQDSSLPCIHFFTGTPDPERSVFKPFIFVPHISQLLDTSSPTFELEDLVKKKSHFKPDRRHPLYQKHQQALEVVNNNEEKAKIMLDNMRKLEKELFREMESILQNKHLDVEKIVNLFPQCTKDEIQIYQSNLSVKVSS
Protocol: as §1, §2, §3, §4

[3] = target: T3, KEAP1 (Homo sapiens, UniProt Q14145)
T3 construct: Full-length genes encoding three probe 1- and one probe 2-targeted proteins were amplified from a cDNA library; expressed in transfected cells; host or cells: HEK293T
T3 sequence (Q14145 whole entry): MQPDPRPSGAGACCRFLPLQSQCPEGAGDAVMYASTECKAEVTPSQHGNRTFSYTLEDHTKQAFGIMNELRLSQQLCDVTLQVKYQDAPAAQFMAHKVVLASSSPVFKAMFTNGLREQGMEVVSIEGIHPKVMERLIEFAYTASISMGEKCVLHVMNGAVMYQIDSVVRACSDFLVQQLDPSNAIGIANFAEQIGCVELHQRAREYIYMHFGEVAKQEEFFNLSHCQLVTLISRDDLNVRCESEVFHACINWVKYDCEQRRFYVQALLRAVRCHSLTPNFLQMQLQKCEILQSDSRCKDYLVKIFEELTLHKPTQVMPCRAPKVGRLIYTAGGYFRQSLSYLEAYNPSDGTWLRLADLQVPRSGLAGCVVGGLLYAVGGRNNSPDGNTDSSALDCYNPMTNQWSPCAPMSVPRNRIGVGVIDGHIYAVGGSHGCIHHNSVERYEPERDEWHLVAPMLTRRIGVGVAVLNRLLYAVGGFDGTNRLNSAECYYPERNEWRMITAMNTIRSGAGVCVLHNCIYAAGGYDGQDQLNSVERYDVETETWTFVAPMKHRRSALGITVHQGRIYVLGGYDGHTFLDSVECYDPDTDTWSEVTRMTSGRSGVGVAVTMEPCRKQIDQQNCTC
Protocol: as §1, §2, §3, §4

T1 sequence (Q9C0B1 whole entry): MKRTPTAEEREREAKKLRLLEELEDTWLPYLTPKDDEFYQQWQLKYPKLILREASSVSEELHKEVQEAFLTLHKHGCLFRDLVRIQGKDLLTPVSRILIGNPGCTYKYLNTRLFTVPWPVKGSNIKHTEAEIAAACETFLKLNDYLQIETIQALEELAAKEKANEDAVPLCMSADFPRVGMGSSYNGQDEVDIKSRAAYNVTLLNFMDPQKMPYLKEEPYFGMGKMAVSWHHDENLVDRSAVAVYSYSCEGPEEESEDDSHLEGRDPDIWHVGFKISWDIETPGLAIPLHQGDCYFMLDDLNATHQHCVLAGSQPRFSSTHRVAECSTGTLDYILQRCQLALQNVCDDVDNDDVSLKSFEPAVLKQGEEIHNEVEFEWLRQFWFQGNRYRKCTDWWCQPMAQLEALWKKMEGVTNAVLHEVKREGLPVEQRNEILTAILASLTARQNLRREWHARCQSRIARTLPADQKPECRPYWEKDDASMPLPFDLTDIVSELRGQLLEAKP

In the case of `C#CCNN.Cl` [probe 1, prop-2-yn-1-ylhydrazine hydrochloride], the “probe labeling of recombinant protein, in-gel fluorescence” value (“probe labeling of recombinant protein” for short) [1] is reported as “selective reactivity with the aryl probe 2 over the alkyl probe 1”, the “probe labeling of recombinant protein” value [2] is reported as “reacted with both probes 1 and 2” and the “probe labeling of recombinant protein” value [3] is reported as “reacted with both probes 1 and 2”.

For `C#CCCNC(=O)c1ccc(NN)cc1.Cl` [probe 2, N-(but-3-yn-1-yl)-4-hydrazinylbenzamide hydrochloride], the “probe labeling of recombinant protein” value [1] was “preferentially targeted by probe 2”, the “probe labeling of recombinant protein” value [2] was “reacted with both probes 1 and 2” and the “probe labeling of recombinant protein” value [3] was “reacted with both probes 1 and 2”.

— patent US11226337B2, “Chemoproteomic profiling of protein electrophilic and oxidative post-translational modifications” (Zenagem, LLC, priority 2017, dated 2022)
